# Reference: PubChem BioAssay (NCI)
#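 Step 1: Grow cells in 96-well plates. Step 2: Expose to compound for 48 hours at 5 concentrations. Step 3: Interpolate endpoints linearly; if unreached, use highest concentration. Here, GI50 denotes the concentration required for 50% inhibition of growth. TGI denotes the concentration required for complete inhibition of growth.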
# Key:
# Assay in all cases: growth of human tumour cells (NCI), 48 h
# [1] = tested on: NCI/ADR-RES ovarian
# [2] = tested on: TK-10 renal
# [3] = tested on: UO-31 renal
# [4] = tested on: RXF 393 renal
# [5] = tested on: PC-3 prostate
# [6] = tested on: EKVX NSCLC
# [7] = tested on: COLO 205 colon
# [8] = tested on: MDA-MB-435
# [9] = tested on: HOP-62 NSCLC
# [10] = tested on: SK-MEL-28 melanoma
# [11] = tested on: ACHN renal
# [12] = tested on: U251 CNS
# [13] = tested on: SF-295 CNS
# [14] = tested on: NCI-H23 lung
# [15] = tested on: SN12C renal
# [16] = tested on: HCT-15 colon
# [17] = tested on: DU-145 prostate
# [18] = tested on: NCI-H226 lung
# [19] = tested on: T-47D breast
# [20] = tested on: HL-60(TB) leukemia
# [21] = tested on: SK-MEL-5 melanoma
# [22] = tested on: HS 578T breast
# [23] = tested on: SK-OV-3 ovarian
# [24] = tested on: OVCAR-3 ovarian
# [25] = tested on: 786-0 renal
# [26] = tested on: A549 NSCLC
# [27] = tested on: A498 renal
# [28] = tested on: MCF7 breast
# [29] = tested on: SNB-19 CNS
# [30] = tested on: OVCAR-5 ovarian
# [31] = tested on: LOX IMVI melanoma
# [32] = tested on: RPMI-8226 leukemia
# [33] = tested on: CAKI-1 renal
# [34] = tested on: OVCAR-4 ovarian
# [35] = tested on: UACC-62 melanoma
# [36] = tested on: K-562 leukemia
# [37] = tested on: SNB-75 CNS
# [38] = tested on: IGROV1 ovarian
# [39] = tested on: MDA-MB-231 breast
# [40] = tested on: SF-539 CNS
# [41] = tested on: MOLT-4 leukemia
# [42] = tested on: SK-MEL-2 melanoma
# [43] = tested on: MALME-3M melanoma
# [44] = tested on: NCI-H522 lung
# [45] = tested on: BT-549 breast
# [46] = tested on: KM12 colon
# [47] = tested on: CCRF-CEM leukemia
# [48] = tested on: HOP-92 NSCLC
# [49] = tested on: SW-620 colon
# [50] = tested on: NCI-H460 lung
# [51] = tested on: UACC-257 melanoma
# [52] = tested on: HCT-116 colon
# [53] = tested on: HCC-2998 colon
# [54] = tested on: SF-268 CNS
# [55] = tested on: M14 melanoma
# [56] = tested on: OVCAR-8 ovarian
# [57] = tested on: HT29 colon
smiles,measurement,setting,value
Cn1cc(-c2csc(-c3cn(C(=O)OC(C)(C)C)c4ccccc34)n2)c2cccnc21,GI50,[1],2.33 µM
same,TGI,[1],14.4 µM
same,GI50,[2],15.9 µM
same,TGI,[2],42.2 µM
same,GI50,[3],3.46 µM
same,TGI,[3],21.3 µM
same,GI50,[4],2.26 µM
same,TGI,[4],9.29 µM
same,GI50,[5],4.89 µM
same,TGI,[5],24.4 µM
same,GI50,[6],7.12 µM
same,TGI,[6],33.7 µM
same,GI50,[7],2.97 µM
same,TGI,[7],14.6 µM
same,GI50,[8],1.68 µM
same,TGI,[8],22.2 µM
same,GI50,[9],12.1 µM
same,TGI,[9],30.4 µM
same,GI50,[10],10.2 µM
same,TGI,[10],33.3 µM
same,GI50,[11],7.33 µM
same,TGI,[11],20.4 µM
same,GI50,[12],4.23 µM
same,TGI,[12],16.3 µM
same,GI50,[13],3.42 µM
same,TGI,[13],14.5 µM
same,GI50,[14],11.2 µM
same,TGI,[14],30.9 µM
same,GI50,[15],6.45 µM
same,TGI,[15],21.6 µM
same,GI50,[16],6.35 µM
same,TGI,[16],37.7 µM
same,GI50,[17],5.17 µM
same,TGI,[17],21.6 µM
same,GI50,[18],3.07 µM
same,TGI,[18],20.6 µM
same,GI50,[19],3.71 µM
same,TGI,[19],15.6 µM
same,GI50,[20],2.61 µM
same,TGI,[20],21.9 µM
same,GI50,[21],2.56 µM
same,TGI,[21],13.2 µM
same,GI50,[22],3.93 µM
same,TGI,[22],25.7 µM
same,GI50,[23],10.1 µM
same,TGI,[23],48.2 µM
same,GI50,[24],2.26 µM
same,TGI,[24],5.61 µM
same,GI50,[25],4.92 µM
same,TGI,[25],16.4 µM
same,GI50,[26],6.04 µM
same,TGI,[26],31.2 µM
same,GI50,[27],3.86 µM
same,TGI,[27],14.4 µM
same,GI50,[28],2.85 µM
same,TGI,[28],16.3 µM
same,GI50,[29],10.4 µM
same,TGI,[29],30.1 µM
same,GI50,[30],14.6 µM
same,TGI,[30],29.9 µM
same,GI50,[31],3.53 µM
same,TGI,[31],18.6 µM
same,GI50,[32],7.66 µM
same,TGI,[32],36.7 µM
same,GI50,[33],3.06 µM
same,TGI,[33],24.8 µM
same,GI50,[34],6.73 µM
same,TGI,[34],47 µM
same,GI50,[35],7.8 µM
same,TGI,[35],22.4 µM
same,GI50,[36],2.02 µM
same,TGI,[36],> 100 µM
same,GI50,[37],1.7 µM
same,TGI,[37],8.63 µM
same,GI50,[38],6.5 µM
same,TGI,[38],31 µM
same,GI50,[39],5.3 µM
same,TGI,[39],20 µM
same,GI50,[40],3.51 µM
same,TGI,[40],17.4 µM
same,GI50,[41],8.88 µM
same,TGI,[41],46.8 µM
same,GI50,[42],13.8 µM
same,TGI,[42],36.3 µM
same,GI50,[43],14.6 µM
same,TGI,[43],40.8 µM
same,GI50,[44],3.84 µM
same,TGI,[44],25.4 µM
same,GI50,[45],6.87 µM
same,TGI,[45],21.2 µM
same,GI50,[46],2.78 µM
same,TGI,[46],9.57 µM
same,GI50,[47],3.89 µM
same,TGI,[47],67.6 µM
same,GI50,[48],3.81 µM
same,TGI,[48],19.9 µM
same,GI50,[49],4.53 µM
same,TGI,[49],21.6 µM
same,GI50,[50],3.92 µM
same,TGI,[50],17.7 µM
same,GI50,[51],8.97 µM
same,TGI,[51],23.6 µM
same,GI50,[52],4.7 µM
same,TGI,[52],17.8 µM
same,GI50,[53],10.2 µM
same,TGI,[53],25.3 µM
same,GI50,[54],8.01 µM
same,TGI,[54],35.3 µM
same,GI50,[55],7.36 µM
same,TGI,[55],22.7 µM
same,GI50,[56],6.03 µM
same,TGI,[56],33.9 µM
N#Cc1cc2c(cc1Cl)SC(=Nc1ccccc1)N(S(=O)(=O)c1ccc(Br)s1)S2(=O)=O,GI50,[1],19.8 µM
same,TGI,[1],43.8 µM
same,GI50,[2],19.7 µM
same,TGI,[2],35.6 µM
same,GI50,[3],15.1 µM
same,TGI,[3],36.4 µM
same,GI50,[4],15.1 µM
same,TGI,[4],45.1 µM
same,GI50,[5],17.8 µM
same,TGI,[5],37.3 µM
same,GI50,[6],19.5 µM
same,TGI,[6],35.1 µM
same,GI50,[7],49.1 µM
same,TGI,[7],> 100 µM
same,GI50,[8],16.1 µM
same,TGI,[8],33.9 µM
same,GI50,[9],19.1 µM
same,TGI,[9],35.9 µM
same,GI50,[10],19.5 µM
same,TGI,[10],44.1 µM
same,GI50,[11],19.7 µM
same,TGI,[11],37.3 µM
same,GI50,[12],19.4 µM
same,TGI,[12],42.5 µM
same,GI50,[13],30.4 µM
same,TGI,[13],89.5 µM
same,GI50,[14],19.3 µM
same,TGI,[14],38 µM
same,GI50,[15],24 µM
same,TGI,[15],49.6 µM
same,GI50,[16],17.9 µM
same,TGI,[16],38.8 µM
same,GI50,[17],20.6 µM
same,TGI,[17],43.4 µM
same,GI50,[18],28.8 µM
same,TGI,[18],55.8 µM
same,GI50,[19],24.3 µM
same,TGI,[19],75 µM
same,GI50,[21],16 µM
same,TGI,[21],30.3 µM
same,GI50,[22],24 µM
same,TGI,[22],53.9 µM
same,GI50,[23],39.6 µM
same,TGI,[23],> 100 µM
same,GI50,[24],15.9 µM
same,TGI,[24],32 µM
same,GI50,[25],16.7 µM
same,TGI,[25],32.4 µM
same,GI50,[26],24.7 µM
same,TGI,[26],66.6 µM
same,GI50,[27],21.9 µM
same,TGI,[27],38 µM
same,GI50,[28],13.6 µM
same,TGI,[28],39.5 µM
same,GI50,[30],19.7 µM
same,TGI,[30],39.2 µM
same,GI50,[31],18.8 µM
same,TGI,[31],43.6 µM
same,GI50,[32],23.6 µM
same,TGI,[32],67.6 µM
same,GI50,[33],17.5 µM
same,TGI,[33],33.8 µM
same,GI50,[34],20.9 µM
same,TGI,[34],44 µM
same,GI50,[35],20.8 µM
same,TGI,[35],36.3 µM
same,GI50,[36],14.5 µM
same,TGI,[36],43.8 µM
same,GI50,[37],24 µM
same,TGI,[37],51.7 µM
same,GI50,[38],12.8 µM
same,TGI,[38],31.1 µM
same,GI50,[39],22.8 µM
same,TGI,[39],42.1 µM
same,GI50,[40],21.6 µM
same,TGI,[40],39 µM
same,GI50,[41],15.9 µM
same,TGI,[41],46.2 µM
same,GI50,[42],15 µM
same,TGI,[42],37.8 µM
same,GI50,[44],15.5 µM
same,TGI,[44],39.1 µM
same,GI50,[45],17.7 µM
same,TGI,[45],32.2 µM
same,GI50,[57],32.3 µM
same,TGI,[57],> 100 µM
same,GI50,[46],18.7 µM
same,TGI,[46],35.7 µM
same,GI50,[47],21.8 µM
same,TGI,[47],45 µM
same,GI50,[48],17.6 µM
same,TGI,[48],39.7 µM
same,GI50,[49],18.9 µM
same,TGI,[49],40 µM
same,GI50,[50],23.1 µM
same,TGI,[50],53 µM
same,GI50,[52],15.9 µM
same,TGI,[52],33.7 µM
same,GI50,[53],14.7 µM
same,TGI,[53],30.8 µM
same,GI50,[54],20.6 µM
same,TGI,[54],47.2 µM
same,GI50,[55],14.8 µM
same,TGI,[55],30.6 µM
same,GI50,[56],18.9 µM
same,TGI,[56],47.9 µM
C=C(C)[C@@H]1CC[C@]2(C(=O)OCCOCCOCC[P+](c3ccccc3)(c3ccccc3)c3ccccc3)CC[C@]3(C)[C@H](CC[C@@H]4[C@@]5(C)CC[C@H](C)C(C)(C)[C@@H]5CC[C@]43C)[C@@H]12,GI50,[9],0.0384 µM
same,TGI,[9],0.614 µM
same,GI50,[50],0.0383 µM
same,TGI,[50],> 100 µM
same,GI50,[56],0.0431 µM
same,TGI,[56],> 100 µM
